Data as given in ChEMBL document CHEMBL1135839, “Design and synthesis of novel benzofurans as a new class of antifungal agents targeting fungal N-myristoyltransferase. Part 2” (Bioorg Med Chem Lett, 2002).

Columns and labels:
[1] = tested on: Candida albicans; experiment: Antifungal activity expressed as inhibitory concentration against Candida albicans CY1002 in YNBPB medium; assay type: functional, organism-based
[2] = tested on: Candida albicans; experiment: Antifungal activity expressed as inhibitory concentration against Candida albicans CY1002 in calf serum; assay type: functional, organism-based
[3] = Half life of compound determined after intravenous administration to rat; assay type: ADME, organism-based; conditions: in vivo
[4] = Plasma concentration expressed as area under curve after intravenous administration was determined in rat; assay type: ADME, organism-based
[5] = tested on: Rattus norvegicus; experiment: Effective dose required against Candida albicans for 50% survival on intravenous administration in rats; assay type: functional
[6] = biological target: Candida albicans N-myristoyltransferase (Candida albicans); experiment: Inhibitory activity against Candida albicans N-Myristoyltransferase (CaNmt) assessed as inhibitory concentration using substrate peptide and myristotyl-CoA at 0.5 uM
[7] = biological target: T1, Peptide N-myristoyltransferase (Homo sapiens, UniProt P30419+O60551); experiment: Inhibitory activity against human N-Myristoyltransferase (HsNmt) assessed as inhibitory concentration using substrate peptide and myristotyl-CoA at 0.5 uM; assay type: protein assay
T1 sequence (P30419 whole entry): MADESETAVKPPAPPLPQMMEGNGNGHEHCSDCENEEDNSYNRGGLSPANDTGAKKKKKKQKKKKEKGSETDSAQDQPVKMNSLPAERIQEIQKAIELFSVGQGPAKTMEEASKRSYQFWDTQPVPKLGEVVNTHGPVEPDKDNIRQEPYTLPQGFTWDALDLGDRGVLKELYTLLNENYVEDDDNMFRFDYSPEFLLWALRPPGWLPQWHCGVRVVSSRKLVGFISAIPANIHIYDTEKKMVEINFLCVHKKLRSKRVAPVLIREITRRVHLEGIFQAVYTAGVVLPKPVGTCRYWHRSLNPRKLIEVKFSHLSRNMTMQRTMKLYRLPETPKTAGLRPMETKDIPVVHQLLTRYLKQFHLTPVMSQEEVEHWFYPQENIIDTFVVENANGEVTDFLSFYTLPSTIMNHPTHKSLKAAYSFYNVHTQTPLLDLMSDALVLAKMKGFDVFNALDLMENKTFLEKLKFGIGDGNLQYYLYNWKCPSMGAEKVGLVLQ
T1 sequence (O60551 whole entry): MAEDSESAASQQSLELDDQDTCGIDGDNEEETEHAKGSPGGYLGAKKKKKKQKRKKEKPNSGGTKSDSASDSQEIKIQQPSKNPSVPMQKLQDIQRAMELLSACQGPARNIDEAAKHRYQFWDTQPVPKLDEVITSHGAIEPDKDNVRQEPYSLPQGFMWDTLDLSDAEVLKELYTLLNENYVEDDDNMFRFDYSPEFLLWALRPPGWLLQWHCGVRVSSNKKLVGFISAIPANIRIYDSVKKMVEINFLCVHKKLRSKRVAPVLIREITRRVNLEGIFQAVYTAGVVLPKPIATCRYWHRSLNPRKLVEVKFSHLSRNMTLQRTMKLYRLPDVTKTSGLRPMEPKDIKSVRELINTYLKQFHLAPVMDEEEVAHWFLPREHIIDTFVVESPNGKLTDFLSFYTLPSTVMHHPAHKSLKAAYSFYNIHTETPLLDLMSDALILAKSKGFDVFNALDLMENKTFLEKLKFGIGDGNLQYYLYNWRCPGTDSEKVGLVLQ

[8] = biological target: Candida albicans N-myristoyltransferase (Candida albicans); experiment: Inhibitory activity against Candida albicans N-Myristoyltransferase (Nmt)
[9] = tested on: Candida albicans; experiment: Antifungal activity expressed as inhibitory concentration against Candida albicans in calf serum; assay type: functional, organism-based
[10] = biological target: Candida albicans N-myristoyltransferase (Candida albicans); experiment: Inhibitory activity against Candida albicans (Nmt) assessed as inhibitory concentration
[11] = biological target: Candida albicans N-myristoyltransferase (Candida albicans); experiment: Inhibitory activity against Candida albicans (Nmt) assessed as inhibitory concentration (nM)

SMILES | IC50 [1] [nM] | IC50 [2] [nM] | half-life [3] [h] | AUC [4] [ng·h/mL] | ED50 [5] [mg/kg] | IC50 [6] [nM] | IC50 [7] [nM] | IC50 [8] [nM] | IC50 [9] [nM] | IC50 [10] [nM] | IC50 [11] [nM]
Cc1c(COc2ccc(F)c(F)c2F)oc2cccc(OCCCNCc3cccnc3)c12 | 35 | 330 | 2 | 330 | 7.1 | – | – | – | – | – | –
Cc1c(COc2cccc(F)c2F)oc2cccc(OCCCNCc3cccnc3)c12 | 80 | 570 | 1.9 | 500 | – | – | – | – | – | – | –
Cc1c(COc2ccccc2)oc2cccc(OCCCNCc3cccnc3)c12 | 370 | – | 1.9 | 670 | – | 72 | 77000 | – | – | – | –
Cc1c(COc2ccc(C#N)cc2)oc2cccc(OCCCNCc3cccnc3)c12 | 160 | 1400 | 1.2 | 340 | – | 9.4 | > 460000 | 9.4 | – | – | –
Cc1c(COc2ccc(Br)cc2F)oc2cccc(OCCCNCc3cccnc3)c12 | 74 | 1300 | 3.6 | 360 | > 30 | 28 | > 400000 | – | – | – | –
OC(Cn1cncn1)(Cn1cncn1)c1ccc(F)cc1F [FLUCONAZOLE] | – | 500 | 4 | 19.6 | – | – | – | – | 500 | – | –
CCOC(=O)c1oc2cccc(OCCCNCc3cccnc3)c2c1C | – | – | 0.4 | 330 | – | – | > 450000 | – | – | – | –
Cc1c(COc2ccccc2F)oc2cccc(OCCCNCc3cccnc3)c12 | 40 | 600 | 1.6 | 560 | – | 8.3 | > 470000 | – | – | 8.3 | –
Cc1c(COc2ccc(F)cc2)oc2cccc(OCCCNCc3cccnc3)c12 | 21 | 700 | 1.9 | 340 | – | 5.2 | 67000 | – | – | – | 5.2
Cc1c(COc2cccc(F)c2)oc2cccc(OCCCNCc3cccnc3)c12 | 110 | 3300 | 1.5 | 370 | – | 110 | > 110000 | – | – | – | –
Cc1c(CCc2ccccc2)oc2cccc(OCCCNCc3cccnc3)c12 | 13000 | > 240000 | 1.1 | 290 | – | 1200 | 12000 | – | – | – | –
Cc1c(COc2ccc(F)cc2F)oc2cccc(OCCCNCc3cccnc3)c12 | 30 | 340 | 1.6 | 420 | 7.1 | 7.5 | > 450000 | – | – | – | 7.5
Cc1c(C(=O)Nc2ccccc2)oc2cccc(OCCCNCc3cccnc3)c12 | 12000 | – | 0.9 | 240 | – | 2200 | > 480000 | – | – | – | –
Cc1c(COc2ccc(Cl)cc2)oc2cccc(OCCCNCc3cccnc3)c12 | 920 | 6600 | 2.4 | 330 | – | 73 | > 110000 | – | – | – | –
Cc1c(CSc2ccccc2)oc2cccc(OCCCNCc3cccnc3)c12 | 11000 | 180000 | 1.4 | 390 | – | – | – | – | – | – | –
Cc1c(COc2ccccc2C#N)oc2cccc(OCCCNCc3cccnc3)c12 | 1200 | 3300 | 0.5 | 280 | – | 17 | 19000 | – | – | – | –
